Here are results for two compounds from US9999650B2, “Peptide and peptidomimetic inhibitors” (Ra Pharmaceuticals, Inc., priority 2012, dated 2018).

Type in all cases: biochemical
For assay [1], the target named is T1, thrombin (Homo sapiens, UniProt P00734).
T1 construct: thrombin (Enzyme Research Laboratories, South Bend, Ind.); purchased Enzyme Research Laboratories
Put plainly: Inhibitor specificity IC50 assay, thrombin (Boc-Val-Pro-Arg-AMC). The conditions noted are these: substrate Boc-Val-Pro-Arg-AMC. As to the method: (§1) Activated human plasma kallikrein (Enzyme Research Laboratories, HPKa 1303) was reacted with H-Pro-Phe-Arg-7-amido-4-methylcoumarin (H-Pro-Pre-Arg-AMC) (a fluorogenic substrate for plasma as well as pancreatic and urinary kallikreins; Bachem I-1295) and candidate inhibitory peptides to determine the IC50 of the inhibitor.
(§2) Ten 8-fold serial dilutions of peptides (10 mM DMSO stocks) were performed in DMSO and then added to TCNB (50 mM Tris-HCl pH 7.2, 150 mM NaCl, 10 mM CaCl2, 0.05% Brij-35) and sonicated. 50 μL of the peptide dilutions were added to microtitre plates (96 well, black non-binding surface, Corning, 3650) and incubated for 5 minutes at room temperature with 4 nM activated human kallikrein (final concentration after addition of fluorogenic substrate: 1 nM). The samples were then incubated for 1 hour at room temperature with 2 mM H-Pro-Phe-Arg-AMC (final concentration 500 μM). Relative Fluorescence Units (RFU) were measured at excitation/emission 360 nm/460 nm by a SpectraMax M3.
(§3) To determine the specificity of peptide inhibitors, an IC50 assay, as described in Example 4, was performed on a variety of serine proteases related to human plasma kallikrein. The enzymes tested include mouse plasma kallikrein (R&D Systems, Minneapolis, Minn.), and the human enzymes Factor VIIa (Enzyme Research Laboratories, South Bend, Ind.), Factor Xa (Enzyme Research Laboratories, South Bend, Ind.), Factor XIa (Enzyme Research Laboratories, South Bend, Ind.), Factor XIIa (Enzyme Research Laboratories, South Bend, Ind.), tissue kallikrein KLK13 (R&D Systems, Minneapolis, Minn.), thrombin (Enzyme Research Laboratories, South Bend, Ind.) and plasmin (Enzyme Research Laboratories, South Bend, Ind.).
(§4) Each enzyme was tested with the following specific fluorgenic substrates (available from Bachem; Torrance, Calif.): mouse plasma kallikrein (Pro-Phe-Arg-AMC), Factor VIIa (Boc-Val-Pro-Arg-AMC), Factor Xa (Boc-Gln-Gly-Arg-AMC), Factor XIa (Boc-Gln-Gly-Arg-AMC), Factor XIIa (Boc-Gln-Gly-Arg-AMC), KLK13 (Boc-Val-Pro-Arg-AMC), thrombin (Boc-Val-Pro-Arg-AMC) and plasmin (Boc-Val-Leu-Lys-AMC). Peptide inhibitors R2006, R2010, R2012, R2019, R2023, R2030, R2036, R2041, R2047, R2104 and R2051 were assayed.

In assay [2] the target is T2, human plasma kallikrein (Homo sapiens, UniProt P03952).
T2 construct: purchased Enzyme Research Laboratories HPKa 1303
Nature of the assay: Enzyme inhibition assay (fluorogenic substrate H-Pro-Phe-Arg-AMC). The conditions noted are these: Kallikrein inhibitory activity; 1 nM activated human kallikrein, 500 μM H-Pro-Phe-Arg-AMC, 1 hour room temperature; read-out: Avg. IC50. Summed up: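 Activated enzyme (1 nM final) was preincubated 5 min at room temperature with peptides in 10-point 8-fold dilutions. The buffer was 50 mM Tris-HCl pH 7.2, 150 mM NaCl, 10 mM CaCl2, 0.05% Brij-35. After 1 h at room temperature with 500 μM substrate (final), fluorescence was read at 360/460 nm to derive IC50.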

The target of assay [3] is T3, plasmin (Homo sapiens, UniProt P00747).
T3 construct: plasmin (Enzyme Research Laboratories, South Bend, Ind.); purchased Enzyme Research Laboratories
Put plainly: Inhibitor specificity IC50 assay, plasmin (Boc-Val-Leu-Lys-AMC). The conditions noted are these: substrate Boc-Val-Leu-Lys-AMC. As to the method:
as §1, §2, §3, §4

Assay [4] concerns the target T4, Factor XIIa (Homo sapiens, UniProt P00748).
T4 construct: Factor XIIa (Enzyme Research Laboratories, South Bend, Ind.); purchased Enzyme Research Laboratories
T4 sequence (P00748 373-615 limits assumed): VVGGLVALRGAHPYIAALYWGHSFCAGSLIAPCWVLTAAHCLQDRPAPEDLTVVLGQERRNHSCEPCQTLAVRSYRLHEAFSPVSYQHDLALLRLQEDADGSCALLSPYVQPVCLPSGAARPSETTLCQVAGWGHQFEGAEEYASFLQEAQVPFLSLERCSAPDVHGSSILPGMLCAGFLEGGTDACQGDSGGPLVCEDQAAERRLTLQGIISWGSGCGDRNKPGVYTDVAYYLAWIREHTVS
Nature of the assay: Inhibitor specificity IC50 assay, Factor XIIa (Boc-Gln-Gly-Arg-AMC). Particulars: substrate Boc-Gln-Gly-Arg-AMC. On the procedure: as §1, §2, §3, §4

Assay [5] concerns the target T5, Factor XIa (Homo sapiens, UniProt P03951).
T5 construct: Factor XIa (Enzyme Research Laboratories, South Bend, Ind.); purchased Enzyme Research Laboratories
Put plainly: Inhibitor specificity IC50 assay, Factor XIa (Boc-Gln-Gly-Arg-AMC). Particulars: substrate Boc-Gln-Gly-Arg-AMC. As to the method:
as §1, §2, §3, §4

The target in assay [6] is T6, Factor Xa (Homo sapiens, UniProt P00742).
T6 construct: Factor Xa (Enzyme Research Laboratories, South Bend, Ind.); purchased Enzyme Research Laboratories
Put plainly: Inhibitor specificity IC50 assay, Factor Xa (Boc-Gln-Gly-Arg-AMC). Particulars: substrate Boc-Gln-Gly-Arg-AMC. As to the method:
as §1, §2, §3, §4

Assay [7] deals with T7, tissue kallikrein KLK13 (Homo sapiens, UniProt Q9UKR3).
T7 construct: purchased R&D Systems
T7 sequence (Q9UKR3 17-277): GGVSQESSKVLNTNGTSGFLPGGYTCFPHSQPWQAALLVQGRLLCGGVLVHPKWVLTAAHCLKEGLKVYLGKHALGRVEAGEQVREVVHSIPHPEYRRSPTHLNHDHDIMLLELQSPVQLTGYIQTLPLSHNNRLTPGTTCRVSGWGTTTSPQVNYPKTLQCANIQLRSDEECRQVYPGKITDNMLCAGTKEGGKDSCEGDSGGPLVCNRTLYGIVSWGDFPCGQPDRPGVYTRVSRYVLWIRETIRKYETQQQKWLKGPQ
Put plainly: Inhibitor specificity IC50 assay, KLK13 (Boc-Val-Pro-Arg-AMC). The conditions noted are these: substrate Boc-Val-Pro-Arg-AMC. On the procedure: as §1, §2, §3, §4

Assay [8] addresses T8, Factor VIIa (Homo sapiens, UniProt P08709).
T8 construct: Factor VIIa (Enzyme Research Laboratories, South Bend, Ind.); purchased Enzyme Research Laboratories
T8 sequence (P08709 61-212 limits assumed): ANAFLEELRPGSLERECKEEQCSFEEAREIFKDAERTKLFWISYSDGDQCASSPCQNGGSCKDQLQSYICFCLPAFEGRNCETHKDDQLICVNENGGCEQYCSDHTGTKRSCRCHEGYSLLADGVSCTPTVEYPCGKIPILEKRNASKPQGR
T8 sequence (P08709 213-466 limits assumed): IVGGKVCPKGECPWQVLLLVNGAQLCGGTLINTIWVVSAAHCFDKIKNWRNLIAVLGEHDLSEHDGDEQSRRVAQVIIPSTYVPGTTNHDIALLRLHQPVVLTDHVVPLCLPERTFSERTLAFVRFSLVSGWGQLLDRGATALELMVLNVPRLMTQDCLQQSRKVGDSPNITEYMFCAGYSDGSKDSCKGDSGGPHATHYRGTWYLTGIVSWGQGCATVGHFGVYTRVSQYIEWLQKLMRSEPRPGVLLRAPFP
Nature of the assay: Inhibitor specificity IC50 assay, Factor VIIa (Boc-Val-Pro-Arg-AMC). The conditions noted are these: substrate Boc-Val-Pro-Arg-AMC. As to the method: as §2, §3, §4

The term IC50 denotes the concentration that gives 50% inhibition.

Numbered stars: 1 amine (or outer) side, 2 acyl side, 3 side chain; on linkers, the order of the positions; unused ones are H or OH. Bridge positions count the residues as written; N and C are the ends. Square brackets hold non-standard residues; d marks the D form. Peptide text beside a SMILES is read from it. * marks the point of attachment. mXylylene = c1cc(C[*:1])cc(C[*:2])c1; Heptanoyl = CCCCCCC(=O)*; Mpa = O=C(O)CCS

T3 sequence (P00747 97-580 limits assumed): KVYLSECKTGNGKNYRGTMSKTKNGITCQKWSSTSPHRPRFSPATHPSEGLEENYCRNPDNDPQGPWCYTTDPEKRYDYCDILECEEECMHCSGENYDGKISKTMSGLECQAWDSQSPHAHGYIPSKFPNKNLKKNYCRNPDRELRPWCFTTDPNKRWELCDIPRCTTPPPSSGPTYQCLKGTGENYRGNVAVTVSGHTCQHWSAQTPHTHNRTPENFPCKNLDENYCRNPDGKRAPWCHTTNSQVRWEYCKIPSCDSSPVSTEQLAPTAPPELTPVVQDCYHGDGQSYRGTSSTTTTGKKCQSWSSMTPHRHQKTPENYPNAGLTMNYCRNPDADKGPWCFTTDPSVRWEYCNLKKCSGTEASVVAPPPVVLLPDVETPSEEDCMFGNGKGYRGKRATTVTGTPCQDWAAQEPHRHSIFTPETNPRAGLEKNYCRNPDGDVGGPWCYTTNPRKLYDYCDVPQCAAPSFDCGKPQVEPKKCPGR
T3 sequence (P00747 581-810 limits assumed): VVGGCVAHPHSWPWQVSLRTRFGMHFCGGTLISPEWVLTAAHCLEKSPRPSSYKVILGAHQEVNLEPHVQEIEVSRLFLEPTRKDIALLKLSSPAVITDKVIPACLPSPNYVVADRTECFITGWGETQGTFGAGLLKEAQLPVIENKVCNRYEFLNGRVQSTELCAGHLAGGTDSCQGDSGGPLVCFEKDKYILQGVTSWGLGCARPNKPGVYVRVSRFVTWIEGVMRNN
T2 sequence (P03952 20-390 limits assumed): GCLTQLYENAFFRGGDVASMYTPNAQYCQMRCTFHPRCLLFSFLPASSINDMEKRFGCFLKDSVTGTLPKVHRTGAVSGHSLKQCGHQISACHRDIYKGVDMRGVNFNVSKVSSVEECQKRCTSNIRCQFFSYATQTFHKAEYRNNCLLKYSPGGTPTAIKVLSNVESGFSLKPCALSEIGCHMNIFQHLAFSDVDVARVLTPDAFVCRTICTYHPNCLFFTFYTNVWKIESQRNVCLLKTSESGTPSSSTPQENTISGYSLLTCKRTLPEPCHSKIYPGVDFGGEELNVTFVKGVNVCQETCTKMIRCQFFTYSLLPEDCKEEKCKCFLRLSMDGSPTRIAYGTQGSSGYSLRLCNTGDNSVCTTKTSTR
T2 sequence (P03952 391-638 limits assumed): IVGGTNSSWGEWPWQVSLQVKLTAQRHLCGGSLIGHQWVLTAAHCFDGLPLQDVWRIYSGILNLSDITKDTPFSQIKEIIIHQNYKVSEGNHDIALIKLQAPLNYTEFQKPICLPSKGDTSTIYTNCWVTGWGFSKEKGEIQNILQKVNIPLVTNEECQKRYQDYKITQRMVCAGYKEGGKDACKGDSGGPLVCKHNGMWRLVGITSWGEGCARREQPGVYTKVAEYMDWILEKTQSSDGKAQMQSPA
T5 sequence (P03951 19-387 limits assumed): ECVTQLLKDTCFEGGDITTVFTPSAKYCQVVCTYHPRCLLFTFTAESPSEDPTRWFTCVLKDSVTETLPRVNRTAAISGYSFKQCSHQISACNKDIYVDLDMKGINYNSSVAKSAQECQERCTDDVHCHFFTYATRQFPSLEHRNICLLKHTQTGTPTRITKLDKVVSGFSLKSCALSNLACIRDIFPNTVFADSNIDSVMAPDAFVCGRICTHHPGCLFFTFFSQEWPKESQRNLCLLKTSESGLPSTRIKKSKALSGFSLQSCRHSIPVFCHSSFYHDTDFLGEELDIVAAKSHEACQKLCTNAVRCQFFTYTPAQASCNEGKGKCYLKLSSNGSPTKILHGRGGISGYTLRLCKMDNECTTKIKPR
T5 sequence (P03951 388-625 limits assumed): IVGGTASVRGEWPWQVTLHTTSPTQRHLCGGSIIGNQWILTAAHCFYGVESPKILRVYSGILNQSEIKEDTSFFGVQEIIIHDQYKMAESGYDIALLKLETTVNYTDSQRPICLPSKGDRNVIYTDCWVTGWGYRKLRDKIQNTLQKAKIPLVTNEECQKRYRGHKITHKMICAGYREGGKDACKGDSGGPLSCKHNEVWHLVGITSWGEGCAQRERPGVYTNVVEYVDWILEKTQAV
T6 sequence (P00742 41-179 limits assumed): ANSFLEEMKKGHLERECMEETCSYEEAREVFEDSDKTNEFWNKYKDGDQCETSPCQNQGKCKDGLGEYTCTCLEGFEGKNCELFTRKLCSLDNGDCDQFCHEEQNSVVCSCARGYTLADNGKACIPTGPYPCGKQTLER
T6 sequence (P00742 235-488 limits assumed): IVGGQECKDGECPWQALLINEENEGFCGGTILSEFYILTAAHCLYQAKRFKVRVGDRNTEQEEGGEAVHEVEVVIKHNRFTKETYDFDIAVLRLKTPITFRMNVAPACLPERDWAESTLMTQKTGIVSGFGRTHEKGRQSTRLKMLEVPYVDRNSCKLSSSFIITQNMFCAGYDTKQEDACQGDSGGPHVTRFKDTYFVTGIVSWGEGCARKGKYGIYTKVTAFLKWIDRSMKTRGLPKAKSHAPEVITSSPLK

Consider `CCCCCCC(=O)N[C@H]1CSCc2cccc(c2)CSC[C@@H](C(=O)N[C@@H](CCCNC(=N)N)C(=O)N[C@H](C(N)=O)C(C)C)NC(=O)[C@H]([C@@H](C)CC)NC(=O)[C@H](CO)NC(=O)[C@H](CCC(=O)O)NC1=O` [Compound R2041, [mXylyl(1,5)]Heptanoyl-CESICRV-NH2] (Heptanoyl-CESICRV-NH2; linker 1-5 via mXylylene), for which the IC50 in assay [1] is above 100 µM; in assay [2], 0.0242 µM; in assay [3], above 100 µM; in assay [4], above 100 µM; in assay [5], above 5.4 µM; in assay [6] it was above 7 µM. The IC50 in assay [7] is above 100 µM; in assay [8] it was above 17.9 µM.
`CC[C@H](C)[C@@H]1NC(=O)[C@H](CO)NC(=O)[C@H](CCC(=O)O)NC(=O)CCSCc2cccc(c2)CSC[C@@H](C(=O)N[C@@H](CCCNC(=N)N)C(=O)N[C@H](C(N)=O)C(C)C)NC1=O` [Compound R2051, [mXylyl(1,5)](des-NH2)C-ESICRV-NH2] ([Mpa]ESICRV-NH2; linker 1-5 via mXylylene): the IC50 in assay [1] is above 100 µM; in assay [2], 0.0129 µM; in assay [3] it was above 100 µM; in assay [4], above 100 µM; in assay [5], above 8.3 µM; in assay [6] it was above 100 µM. Also, the IC50 in assay [7] and in assay [8] was above 100 µM each time.
